The target of one assay is T1, rTAAR7d (Rattus norvegicus, UniProt Q923X5).
T1 sequence (Q923X5 1-358): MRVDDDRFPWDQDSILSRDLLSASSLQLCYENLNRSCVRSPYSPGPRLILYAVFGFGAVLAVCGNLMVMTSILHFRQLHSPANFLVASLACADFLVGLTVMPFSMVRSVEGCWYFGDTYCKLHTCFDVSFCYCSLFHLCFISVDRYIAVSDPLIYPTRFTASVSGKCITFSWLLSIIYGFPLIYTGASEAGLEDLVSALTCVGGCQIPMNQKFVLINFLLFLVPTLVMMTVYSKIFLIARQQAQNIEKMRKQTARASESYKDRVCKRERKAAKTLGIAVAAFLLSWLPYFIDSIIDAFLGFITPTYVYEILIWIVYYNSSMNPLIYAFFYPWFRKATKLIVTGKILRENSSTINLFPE
Nature of the assay: CRE-SEAP reporter gene assay in HEK293 cells transfected with rTAAR7d. The format is cell-based. Also on record: Full Taar coding regions were cloned into pcDNA3.1; expressed in transfected cells; host or cells: HEK293. The following applies: FIG. 11A, functional with or without 'Rho tag', EC50 ± s.e.m., 4-parameter Hill equation. As to the method: (§1) FIG. 11 illustrates the dose-dependent responses of TAARs to amines. HEK293 cells were cotransfected with plasmids encoding CRE-SEAP and rTAARs (a) or mTAARs (b), incubated with concentrations of ligands indicated, and assayed for reporter activity (triplicates±s.d.). EC50 values (±s.e.m, bottom right) were calculated using SigmaPlot (Systat Software) and a 4-parameter Hill equation.
(§2) The following mixes (10 μM of each indicated compounds) were tested for their ability to activate rat TAARs. Mix 1: butylamine, dibutylamine, hexylamine. Mix 2: 2-aminopentane, isoamylamine, isobutylamine, isopropylamine. Mix 3: N,N-dimethylcyclohexylamine, 1-methylindole, tryptamine, phenylethylamine. Mix 4: indole, 1-methylpyrrolidine, 1-methylpiperidine, pyrrolidine. […]
(§3) Full Taar coding regions were cloned into pcDNA3.1-(Invitrogen) with or without a 5′ DNA extension of 69 bp encoding the first 20 amino acids of bovine rhodopsin followed by a cloning linker ([…]). […] Fluorescence was measured on an EnVision plate reader (Perkin Elmer) and SEAP activity graphed as relative fluorescence of a phosphatase substrate.
(§4) Here, we set out to identify agonists for additional mouse and rat TAARs. […] Transfected cells were incubated with test chemicals, and phosphatase activity was quantified with a fluorescent substrate as a reporter for TAAR activation. […]

The next assay has as its target T2, rTAAR7b (Rattus norvegicus, UniProt Q923X8).
T2 sequence (Q923X8 1-358): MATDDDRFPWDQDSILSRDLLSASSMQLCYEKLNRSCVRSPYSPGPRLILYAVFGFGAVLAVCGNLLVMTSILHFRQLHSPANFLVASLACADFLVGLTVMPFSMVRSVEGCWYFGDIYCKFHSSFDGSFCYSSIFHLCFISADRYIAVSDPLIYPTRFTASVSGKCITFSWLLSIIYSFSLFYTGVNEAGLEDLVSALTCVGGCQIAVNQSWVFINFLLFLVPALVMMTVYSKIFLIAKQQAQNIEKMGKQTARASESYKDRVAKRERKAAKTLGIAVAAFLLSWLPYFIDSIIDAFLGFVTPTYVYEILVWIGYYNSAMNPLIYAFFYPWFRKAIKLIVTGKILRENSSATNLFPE
Nature of the assay: CRE-SEAP reporter gene assay in HEK293 cells transfected with rTAAR7b. The format is cell-based. Also on record: Full Taar coding regions were cloned into pcDNA3.1; expressed in transfected cells; host or cells: HEK293. The following applies: FIG. 11A, rTAAR7b did not work with a 'Rho tag' (unmodified form), EC50 ± s.e.m., 4-parameter Hill equation. As to the method:
as §1, §2, §3, §4

Regarding `CN(C)C1CCCCC1` [N,N-DIMETHYLCYCLOHEXYLAMINE, N,N-dimethylcyclohexylamine], the half-maximal effective concentration (EC50) at rTAAR7d came to 4.6 ± 1.1 µM; at rTAAR7b it was 33.2 ± 12.8 µM.

Source of the values: patent publication US20140221499A1, “NOVEL RODENT CONTROL AGENTS AND USES THEREOF” (priority 2011, published 2014).
